Our source for the IC50 values is patent publication US10239843B2 (CANCER RESEARCH TECHNOLOGY LIMITED, priority 2014, dated 2019).

Like-named read-outs stand apart in the source and are kept apart here.

For one test, the system named is PARG in HeLa cell line. Briefly: PARG cell assay (PAR chain immunofluorescence after MMS). In kind it is cell-based. Conditions: HeLa cells, MMS treatment, read-out: PARG Cell IC50. The essentials: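 Nuclear poly(ADP-ribose) chains in HeLa cells are read by indirect immunofluorescence with a mouse anti-PAR antibody applied overnight at 4° C after fixing and permeabilising. Cells get 1 h of compound, then 50 μg/mL MMS (final) for another hour. PAR persisting at that point reflects PARG inhibition.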

The next test addresses Human Full Length PARG (Homo sapiens (Human), UniProt Q86W56). Kind of test: PARG enzyme assay (TR-FRET). In kind it is biochemical. Conditions: read-out: PARG Biochem IC50.

Sequence of Human Full Length PARG (Q86W56 whole entry): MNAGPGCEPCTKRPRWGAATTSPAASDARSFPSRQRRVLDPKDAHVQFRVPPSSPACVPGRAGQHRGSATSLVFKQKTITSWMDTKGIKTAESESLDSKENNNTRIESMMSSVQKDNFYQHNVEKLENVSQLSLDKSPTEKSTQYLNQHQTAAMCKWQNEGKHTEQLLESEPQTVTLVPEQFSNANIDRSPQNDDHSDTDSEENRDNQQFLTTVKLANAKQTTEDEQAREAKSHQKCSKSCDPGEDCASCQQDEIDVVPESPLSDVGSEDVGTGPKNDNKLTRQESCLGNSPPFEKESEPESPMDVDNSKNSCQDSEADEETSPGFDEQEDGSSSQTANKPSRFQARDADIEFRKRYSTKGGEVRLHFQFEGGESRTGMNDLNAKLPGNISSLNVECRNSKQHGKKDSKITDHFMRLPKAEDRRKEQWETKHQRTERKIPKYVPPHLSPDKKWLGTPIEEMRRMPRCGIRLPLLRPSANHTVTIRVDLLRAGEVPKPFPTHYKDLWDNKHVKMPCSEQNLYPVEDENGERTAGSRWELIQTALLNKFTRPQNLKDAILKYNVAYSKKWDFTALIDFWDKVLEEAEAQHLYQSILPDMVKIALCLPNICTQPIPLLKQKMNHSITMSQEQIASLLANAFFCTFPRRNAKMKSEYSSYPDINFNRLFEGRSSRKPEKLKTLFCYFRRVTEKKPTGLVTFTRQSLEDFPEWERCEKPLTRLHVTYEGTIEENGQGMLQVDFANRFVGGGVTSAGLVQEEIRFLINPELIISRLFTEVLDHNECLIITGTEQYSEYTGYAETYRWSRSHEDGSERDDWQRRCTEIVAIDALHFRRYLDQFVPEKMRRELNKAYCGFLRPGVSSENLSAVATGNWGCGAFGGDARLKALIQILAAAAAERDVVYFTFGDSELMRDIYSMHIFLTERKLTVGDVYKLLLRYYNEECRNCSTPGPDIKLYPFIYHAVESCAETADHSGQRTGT

`Cn1cc(Cn2c(=O)[nH]c3ccc(S(=O)(=O)NC4(C=O)CC4)cc3c2=O)cn1` [Example 479, N-(1-Formylcyclopropyl)-3-[(1-methylpyrazol-4-yl)methyl]-2,4-dioxo-1H-quinazoline-6-sulfonamide]: the IC50 came out at 3.65 µM in the test with PARG in HeLa cell line (Homo sapiens) and 10.2 µM at Human Full Length PARG.

For `Cc1cc(Cn2c(=O)n(Cc3cnn(C)c3)c(=O)c3cc(S(=O)(=O)NC(C)(C)C)ccc32)n(C)n1` [Example 480], the figures for the IC50 in the test with PARG in HeLa cell line and on Human Full Length PARG were 1.53 µM and 0.784 µM, respectively.

With `Cn1c(=O)n(CC2COC2)c(=O)c2cc(S(=O)(=O)NC3(C)CC3)ccc21` [Example 481, 1-Methyl-N-(1-methylcyclopropyl)-3-(oxetan-3-ylmethyl)-2,4-dioxo-quinazoline-6-sulfonamide], the IC50 was 2.84 µM with PARG in HeLa cell line (Homo sapiens) and 7 µM at Human Full Length PARG.

As to `Cc1cc(Cn2c(=O)c3cc(S(=O)(=O)NC4(C)CC4)cc(Br)c3n(C)c2=O)on1` [Example 482, 8-Bromo-1-methyl-N-(1-methylcyclopropyl)-3-[(3-methylisoxazol-5-yl)methyl]-2,4-dioxo-quinazoline-6-sulfonamide], the values for the IC50 with PARG in HeLa cell line (Homo sapiens) and on Human Full Length PARG were 0.274 µM and 0.83 µM, respectively.

Take `Cc1cc(Cn2c(=O)c3cc(S(=O)(=O)NC4(C)CC4)cc(-c4cnn(C)c4)c3n(C)c2=O)on1` [Example 483, 1-Methyl-N-(1-methylcyclopropyl)-3-[(3-methylisoxazol-5-yl)methyl]-8-(1-methylpyrazol-4-yl)-2,4-dioxo-quinazoline-6-sulfonamide]: the IC50 with PARG in HeLa cell line (Homo sapiens) was 0.845 µM; on Human Full Length PARG, 1.69 µM.

As to `Cc1cc(Cn2c(=O)n(Cc3cnn(C)c3)c(=O)c3cc(S(=O)(=O)NC4(C(F)(F)F)CC4)ccc32)n(C)n1` [Example 485, 1-[(2,5-Dimethylpyrazol-3-yl)methyl]-3-[(1-methylpyrazol-4-yl)methyl]-2,4-dioxo-N-[1-(trifluoromethyl)cyclopropyl]quinazoline-6-sulfonamide], the IC50 was 4.07 µM in the test with PARG in HeLa cell line and 7.1 µM at Human Full Length PARG.

In the case of `Cn1cc(Cc2cc3cc(S(=O)(=O)NC4(C)CC4)ccc3[nH]c2=O)cn1` [Example 486, N-(1-Methylcyclopropyl)-3-[(1-methylpyrazol-4-yl)methyl]-2-oxo-1H-quinoline-6-sulfonamide], the IC50 in the test with PARG in HeLa cell line (Homo sapiens) is 2.29 µM; on Human Full Length PARG it was 1.62 µM.

Take `CC1(NS(=O)(=O)c2ccc3[nH]c(=O)c(Br)cc3c2)CC1` [Example 487, 3-Bromo-N-(1-methylcyclopropyl)-2-oxo-1H-quinoline-6-sulfonamide]: the IC50 with PARG in HeLa cell line (Homo sapiens) is over 30 µM; on Human Full Length PARG, 8.97 µM.

For the compound `Cn1cc(Cc2cc3cc(S(=O)(=O)NC4(C)CC4)ccc3n(C)c2=O)cn1` [Example 491, 1-Methyl-N-(1-methylcyclopropyl)-3-[(1-methylpyrazol-4-yl)methyl]-2-oxo-quinoline-6-sulfonamide], the IC50 in the test with PARG in HeLa cell line was determined as 1.79 µM; on Human Full Length PARG it was 3.44 µM.

As for `Cc1cc(Cn2c(=O)c(Cc3cnn(C)c3)cc3cc(S(=O)(=O)NC4(C)CC4)ccc32)n(C)n1` [Example 492, 1-[(2,5-Dimethylpyrazol-3-yl)methyl]-N-(1-methylcyclopropyl)-3-[(1-methylpyrazol-4-yl)methyl]-2-oxo-quinoline-6-sulfonamide], the results for the IC50 with PARG in HeLa cell line (Homo sapiens) and on Human Full Length PARG were 0.741 µM and 0.489 µM, respectively.

For `Cc1cc(Cn2c(=O)c3cc(S(=O)(=O)NC4(C)CC4)cc(-c4ccc(C)s4)c3n(C)c2=O)on1` [Example 493, 1-Methyl-N-(1-methylcyclopropyl)-3-[(3-methylisoxazol-5-yl)methyl]-8-(5-methyl-2-thienyl)-2,4-dioxo-quinazoline-6-sulfonamide], the IC50 in the test on PARG in HeLa cell line (Homo sapiens) was found to be 0.524 µM; on Human Full Length PARG, 0.453 µM.

On to `Cn1c(=O)n(Cc2cnsc2)c(=O)c2cc(S(=O)(=O)NC3(CF)CC3)ccc21` [Example 494, N-[1-(Fluoromethyl)cyclopropyl]-3-(isothiazol-4-ylmethyl)-1-methyl-2,4-dioxo-quinazoline-6-sulfonamide], for which the values for the IC50 with PARG in HeLa cell line (Homo sapiens) and on Human Full Length PARG were 1.1 µM and 1.26 µM, respectively.
